ChEMBL document CHEMBL5465560, “Selectivity Literature for EUbOPEN Chemogenomic Library” (2024)

Experiments:
[1] = target: Mitogen-activated protein kinase kinase kinase 9 (Homo sapiens) (UniProt P80192); assay: Selectivity interaction (KinomeScan (DiscoverX)) EUB0000655a MAP3K9; conditions: at 10 µM
[2] = target: T1, Serine/threonine-protein kinase 3 (Homo sapiens) (UniProt Q13188); assay: Selectivity interaction (Millipore kinase profiler) EUB0000124b STK3; conditions: at 10 µM
T1 sequence (whole entry): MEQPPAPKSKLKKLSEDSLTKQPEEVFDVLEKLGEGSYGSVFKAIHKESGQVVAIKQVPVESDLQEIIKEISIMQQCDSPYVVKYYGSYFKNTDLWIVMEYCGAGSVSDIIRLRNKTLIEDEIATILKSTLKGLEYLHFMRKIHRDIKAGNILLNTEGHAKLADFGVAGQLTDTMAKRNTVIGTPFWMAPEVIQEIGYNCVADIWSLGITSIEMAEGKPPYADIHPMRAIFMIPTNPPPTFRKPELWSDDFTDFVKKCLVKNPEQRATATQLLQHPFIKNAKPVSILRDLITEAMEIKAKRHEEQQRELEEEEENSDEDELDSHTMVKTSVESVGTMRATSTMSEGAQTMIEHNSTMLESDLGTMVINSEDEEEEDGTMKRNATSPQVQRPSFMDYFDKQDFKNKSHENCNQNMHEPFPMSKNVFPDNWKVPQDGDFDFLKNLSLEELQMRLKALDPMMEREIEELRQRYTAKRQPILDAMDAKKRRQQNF

[3] = target: T2, Mitogen-activated protein kinase kinase kinase kinase 2 (Homo sapiens) (UniProt Q12851); assay: Selectivity interaction (KinomeScan (DiscoverX)) EUB0000595a MAP4K2; conditions: at 10 µM
T2 sequence (whole entry): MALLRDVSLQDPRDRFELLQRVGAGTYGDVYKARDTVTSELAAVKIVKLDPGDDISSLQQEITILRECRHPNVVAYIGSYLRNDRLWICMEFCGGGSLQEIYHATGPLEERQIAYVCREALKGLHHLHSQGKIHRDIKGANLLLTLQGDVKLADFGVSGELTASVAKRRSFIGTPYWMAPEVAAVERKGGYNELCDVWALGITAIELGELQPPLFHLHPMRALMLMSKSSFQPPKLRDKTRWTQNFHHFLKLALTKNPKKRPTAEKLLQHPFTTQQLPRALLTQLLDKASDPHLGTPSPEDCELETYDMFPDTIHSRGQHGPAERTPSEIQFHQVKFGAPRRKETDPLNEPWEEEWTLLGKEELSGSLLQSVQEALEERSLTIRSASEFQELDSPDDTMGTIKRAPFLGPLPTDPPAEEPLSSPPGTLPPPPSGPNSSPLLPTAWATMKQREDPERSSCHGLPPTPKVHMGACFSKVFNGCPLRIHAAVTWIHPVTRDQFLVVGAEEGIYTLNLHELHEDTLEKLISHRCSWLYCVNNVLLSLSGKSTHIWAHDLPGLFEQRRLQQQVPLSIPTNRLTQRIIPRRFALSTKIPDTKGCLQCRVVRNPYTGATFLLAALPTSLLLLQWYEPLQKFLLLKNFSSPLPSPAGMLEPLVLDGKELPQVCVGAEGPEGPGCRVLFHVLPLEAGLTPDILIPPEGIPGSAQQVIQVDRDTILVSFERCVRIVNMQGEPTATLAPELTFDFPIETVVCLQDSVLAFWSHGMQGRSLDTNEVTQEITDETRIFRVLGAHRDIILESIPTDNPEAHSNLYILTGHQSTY

[4] = target: Casein kinase I isoform gamma-3 (Homo sapiens) (UniProt Q9Y6M4); conditions: at 10 µM
[5] = target: MAP/microtubule affinity-regulating kinase 3 (Homo sapiens) (UniProt P27448); assay: Selectivity interaction (ActivX KiNativ screen (kinase selectivity in THP-1 cell lysates)) EUB0000639a MARK3; assay type: subcellular; conditions: lysate, at 1 µM
[6] = target: Casein kinase I isoform delta (Homo sapiens, UniProt P48730); assay: Selectivity interaction (KinomeScan (DiscoverX)) EUB0001049a CSNK1D; conditions: at 1 µM
[7] = target: 5-hydroxytryptamine receptor 2A (Homo sapiens, UniProt P28223); assay: Selectivity interaction (Panel of kinases, GPCRs, ion channels and transporters (enzymatic assay)) EUB0000223bCl HTR2A
[8] = target: T3, Serine/threonine-protein kinase BRSK1 (Homo sapiens) (UniProt Q8TDC3); assay: Selectivity interaction (Kinase panel (Z-LYTE Assay)) EUB0001632a BRSK1; conditions: at 10 µM
T3 sequence (whole entry): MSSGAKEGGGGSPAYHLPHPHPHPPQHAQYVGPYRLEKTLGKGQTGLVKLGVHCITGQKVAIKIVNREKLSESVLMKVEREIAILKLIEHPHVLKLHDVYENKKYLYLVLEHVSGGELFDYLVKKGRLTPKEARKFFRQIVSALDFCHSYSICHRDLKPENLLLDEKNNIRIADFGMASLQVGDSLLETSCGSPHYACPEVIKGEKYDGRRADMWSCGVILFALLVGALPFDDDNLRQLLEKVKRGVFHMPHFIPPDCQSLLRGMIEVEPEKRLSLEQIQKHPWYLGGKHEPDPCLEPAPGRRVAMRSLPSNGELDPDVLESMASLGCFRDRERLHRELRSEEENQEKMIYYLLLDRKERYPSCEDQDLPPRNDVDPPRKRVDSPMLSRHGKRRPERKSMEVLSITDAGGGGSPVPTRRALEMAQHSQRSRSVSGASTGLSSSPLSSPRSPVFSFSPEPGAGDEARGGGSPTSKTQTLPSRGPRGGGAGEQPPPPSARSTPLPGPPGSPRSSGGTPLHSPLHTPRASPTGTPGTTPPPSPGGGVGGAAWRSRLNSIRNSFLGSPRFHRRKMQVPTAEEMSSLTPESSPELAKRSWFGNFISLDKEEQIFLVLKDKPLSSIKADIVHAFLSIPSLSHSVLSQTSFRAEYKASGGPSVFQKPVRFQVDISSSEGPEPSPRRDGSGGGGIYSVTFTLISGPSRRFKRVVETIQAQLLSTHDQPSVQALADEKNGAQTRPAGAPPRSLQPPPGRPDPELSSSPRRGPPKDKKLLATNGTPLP

[9] = target: Dual specificity protein kinase CLK4 (Homo sapiens, UniProt Q9HAZ1); assay: Selectivity interaction (LanthaScreen Eu Kinase Binding Assay) EUB0001632a CLK4; conditions: at 10 µM
[10] = target: Mitogen-activated protein kinase kinase kinase 1 (Homo sapiens, UniProt Q13233); assay: Selectivity interaction (KinomeScan (DiscoverX)) EUB0000695a MAP3K1; conditions: at 100 nM
Sequence of Mitogen-activated protein kinase kinase kinase 1 (Q13233 whole entry): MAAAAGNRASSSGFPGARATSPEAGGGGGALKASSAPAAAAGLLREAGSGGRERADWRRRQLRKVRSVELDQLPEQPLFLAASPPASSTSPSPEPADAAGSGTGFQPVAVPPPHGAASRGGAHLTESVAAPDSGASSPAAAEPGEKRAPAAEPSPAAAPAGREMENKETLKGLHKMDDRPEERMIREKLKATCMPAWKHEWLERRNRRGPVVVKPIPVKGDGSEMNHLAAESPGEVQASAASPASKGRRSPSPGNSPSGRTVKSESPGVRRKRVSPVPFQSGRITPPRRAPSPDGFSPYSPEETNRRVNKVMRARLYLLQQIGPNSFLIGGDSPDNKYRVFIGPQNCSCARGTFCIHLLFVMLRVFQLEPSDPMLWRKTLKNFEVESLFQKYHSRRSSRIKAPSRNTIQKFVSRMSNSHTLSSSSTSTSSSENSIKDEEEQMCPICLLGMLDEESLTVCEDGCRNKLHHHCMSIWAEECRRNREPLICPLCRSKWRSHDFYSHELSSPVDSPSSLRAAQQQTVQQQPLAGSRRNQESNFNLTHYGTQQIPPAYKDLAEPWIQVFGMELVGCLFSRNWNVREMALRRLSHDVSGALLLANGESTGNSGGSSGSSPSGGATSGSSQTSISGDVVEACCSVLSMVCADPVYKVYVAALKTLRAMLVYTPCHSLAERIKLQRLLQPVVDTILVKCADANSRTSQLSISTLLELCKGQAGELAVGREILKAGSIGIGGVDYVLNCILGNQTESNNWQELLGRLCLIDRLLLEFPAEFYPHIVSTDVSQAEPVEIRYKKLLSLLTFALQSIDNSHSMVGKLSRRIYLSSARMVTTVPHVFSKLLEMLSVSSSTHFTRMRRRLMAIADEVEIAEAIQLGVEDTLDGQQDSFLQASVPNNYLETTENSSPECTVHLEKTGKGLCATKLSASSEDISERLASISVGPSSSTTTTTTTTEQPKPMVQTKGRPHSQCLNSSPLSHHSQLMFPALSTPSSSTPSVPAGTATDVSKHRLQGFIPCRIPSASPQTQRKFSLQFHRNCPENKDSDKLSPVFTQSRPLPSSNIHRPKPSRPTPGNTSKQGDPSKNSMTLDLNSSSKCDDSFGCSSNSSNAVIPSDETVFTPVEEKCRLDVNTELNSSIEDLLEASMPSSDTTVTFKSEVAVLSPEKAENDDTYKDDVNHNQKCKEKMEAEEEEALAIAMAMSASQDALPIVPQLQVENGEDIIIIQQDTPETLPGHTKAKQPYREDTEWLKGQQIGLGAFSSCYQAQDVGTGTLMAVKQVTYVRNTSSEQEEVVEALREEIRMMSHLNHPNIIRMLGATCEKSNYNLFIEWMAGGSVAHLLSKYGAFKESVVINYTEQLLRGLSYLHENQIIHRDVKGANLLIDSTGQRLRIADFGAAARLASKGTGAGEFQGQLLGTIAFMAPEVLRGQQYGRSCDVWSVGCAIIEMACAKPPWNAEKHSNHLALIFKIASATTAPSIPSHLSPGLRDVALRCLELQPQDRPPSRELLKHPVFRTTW

Sequence of Casein kinase I isoform delta (P48730 whole entry, looked up, canonical isoform): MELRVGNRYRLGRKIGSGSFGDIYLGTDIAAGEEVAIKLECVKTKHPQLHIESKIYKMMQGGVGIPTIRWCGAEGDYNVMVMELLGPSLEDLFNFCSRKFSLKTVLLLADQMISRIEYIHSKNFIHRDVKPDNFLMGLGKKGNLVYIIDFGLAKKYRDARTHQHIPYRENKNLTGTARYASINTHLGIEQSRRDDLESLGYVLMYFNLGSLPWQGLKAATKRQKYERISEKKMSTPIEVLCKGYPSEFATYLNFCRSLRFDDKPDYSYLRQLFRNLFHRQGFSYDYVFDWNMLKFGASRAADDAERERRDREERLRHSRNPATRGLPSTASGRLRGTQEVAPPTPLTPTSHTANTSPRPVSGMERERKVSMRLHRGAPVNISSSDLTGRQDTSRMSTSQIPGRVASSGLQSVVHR
Sequence of MAP/microtubule affinity-regulating kinase 3 (Homo sapiens) (P27448 whole entry, looked up, canonical isoform): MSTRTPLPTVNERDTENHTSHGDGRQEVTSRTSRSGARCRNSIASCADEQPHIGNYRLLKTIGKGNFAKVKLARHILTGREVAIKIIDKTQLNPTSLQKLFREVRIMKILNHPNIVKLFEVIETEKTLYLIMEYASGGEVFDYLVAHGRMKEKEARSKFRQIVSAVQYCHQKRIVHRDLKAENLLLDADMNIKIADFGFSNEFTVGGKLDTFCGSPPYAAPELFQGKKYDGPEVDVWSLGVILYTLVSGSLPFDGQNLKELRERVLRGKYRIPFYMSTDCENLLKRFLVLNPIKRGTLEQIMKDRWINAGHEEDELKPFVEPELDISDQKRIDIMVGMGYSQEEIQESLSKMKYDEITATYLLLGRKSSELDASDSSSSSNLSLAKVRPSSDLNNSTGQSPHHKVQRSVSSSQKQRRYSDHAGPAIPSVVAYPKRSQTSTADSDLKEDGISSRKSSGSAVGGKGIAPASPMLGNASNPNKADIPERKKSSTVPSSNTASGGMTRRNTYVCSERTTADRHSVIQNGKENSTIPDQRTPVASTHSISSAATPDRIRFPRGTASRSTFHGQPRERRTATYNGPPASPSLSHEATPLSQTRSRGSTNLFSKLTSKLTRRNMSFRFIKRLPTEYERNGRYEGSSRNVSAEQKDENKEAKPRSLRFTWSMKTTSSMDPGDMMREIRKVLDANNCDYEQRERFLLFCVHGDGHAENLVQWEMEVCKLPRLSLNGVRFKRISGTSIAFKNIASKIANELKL
Sequence of 5-hydroxytryptamine receptor 2A (P28223 whole entry): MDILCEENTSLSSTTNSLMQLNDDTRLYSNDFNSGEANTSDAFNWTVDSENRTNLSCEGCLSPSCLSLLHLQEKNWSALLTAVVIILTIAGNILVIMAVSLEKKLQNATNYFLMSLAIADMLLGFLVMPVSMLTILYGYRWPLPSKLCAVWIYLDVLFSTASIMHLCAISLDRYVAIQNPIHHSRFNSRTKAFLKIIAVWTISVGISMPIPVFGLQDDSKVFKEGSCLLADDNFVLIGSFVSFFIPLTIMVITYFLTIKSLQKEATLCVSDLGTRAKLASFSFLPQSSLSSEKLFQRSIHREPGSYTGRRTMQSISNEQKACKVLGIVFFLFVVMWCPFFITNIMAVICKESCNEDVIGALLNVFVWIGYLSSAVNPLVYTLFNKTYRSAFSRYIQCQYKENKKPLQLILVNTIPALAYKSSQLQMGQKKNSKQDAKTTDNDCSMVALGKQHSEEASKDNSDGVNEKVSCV
Sequence of Casein kinase I isoform gamma-3 (Homo sapiens) (Q9Y6M4 whole entry, looked up, canonical isoform): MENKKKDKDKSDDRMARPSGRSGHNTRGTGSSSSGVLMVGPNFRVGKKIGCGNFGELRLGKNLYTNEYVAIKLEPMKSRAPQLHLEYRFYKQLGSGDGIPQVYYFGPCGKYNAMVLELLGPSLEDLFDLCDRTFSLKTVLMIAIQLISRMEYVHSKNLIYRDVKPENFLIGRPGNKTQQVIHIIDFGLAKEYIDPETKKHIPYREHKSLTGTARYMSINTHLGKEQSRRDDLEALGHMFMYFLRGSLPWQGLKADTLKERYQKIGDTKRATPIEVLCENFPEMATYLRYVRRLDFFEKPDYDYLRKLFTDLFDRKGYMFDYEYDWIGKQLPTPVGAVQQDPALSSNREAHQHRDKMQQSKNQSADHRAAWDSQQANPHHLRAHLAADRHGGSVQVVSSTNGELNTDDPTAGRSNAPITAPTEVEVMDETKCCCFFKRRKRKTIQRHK
Sequence of Dual specificity protein kinase CLK4 (Q9HAZ1 whole entry, looked up): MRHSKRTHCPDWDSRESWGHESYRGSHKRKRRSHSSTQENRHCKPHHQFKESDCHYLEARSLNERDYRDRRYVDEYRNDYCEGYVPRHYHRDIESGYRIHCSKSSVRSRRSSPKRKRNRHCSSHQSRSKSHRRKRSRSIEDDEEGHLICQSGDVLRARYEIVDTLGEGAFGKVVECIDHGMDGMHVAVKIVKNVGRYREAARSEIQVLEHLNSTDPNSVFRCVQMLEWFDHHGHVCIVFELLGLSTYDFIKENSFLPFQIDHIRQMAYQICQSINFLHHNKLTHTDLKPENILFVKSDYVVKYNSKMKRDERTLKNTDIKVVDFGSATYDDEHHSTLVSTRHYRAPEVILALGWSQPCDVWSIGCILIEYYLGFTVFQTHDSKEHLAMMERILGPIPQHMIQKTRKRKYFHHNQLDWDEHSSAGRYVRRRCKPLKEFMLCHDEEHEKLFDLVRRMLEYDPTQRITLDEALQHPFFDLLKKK

CN(C)CCOc1ccc(-c2nc(-c3ccncc3)c(-c3ccc4c(c3)CC/C4=N\O)[nH]2)cc1
% of control [1]: 100%

CC(=O)Nc1cccc(-n2c(=O)n(C3CC3)c(=O)c3c(Nc4ccc(I)cc4F)n(C)c(=O)c(C)c32)c1
% of control [2]: 94%

COCC(=O)NC/C=C/c1ccc2ncnc(Nc3ccc(Oc4ccc(C)nc4)c(C)c3)c2c1 [CP-724714]
% of control [3]: 100%

Cc1cc([C@@H](C)Nc2ccccc2C(=O)O)c2nc(N3CCOCC3)cc(=O)n2c1 [AZD-6482]
% of control [4]: 100%

CC[C@@H]1[C@H](F)C(=O)N[C@@H]1COc1nccc2cc(C(N)=O)c(OC)cc12 [ZIMLOVISERTIB]
% of inhibition [5]: 4.3%

COc1cc(Nc2nc(C)cc(-c3cnn4nc(OC)ccc34)n2)cc(C(F)(F)F)c1
% of control [6]: 90%

COc1cc(C(=O)N2CC[C@@H](O)[C@@H](N)C2)cc2nc(-c3cc4ccccc4n3CC3CC3)n(C)c12
pXC50 [7]: 4.9 M

Cn1cc(-n2cnc3c(NCc4nc5cc(Cl)c(Cl)cc5[nH]4)nc(N4CCOCC4)nc32)cn1
% of control [8]: 11.9% | % of inhibition [9]: 12.3%

Cc1cc(F)c(C(=O)Nc2cccc(-c3nncn3C(C)C)n2)cc1-n1cnc(C2CC2)c1
% of control [10]: 100%
